# Source: publication PMC8547495 (Journal of medicinal chemistry, 2021)
# “Also recorded” adds a separate entry of the source.
# How the values were obtained:
# SARS-CoV-2 = settings: at 33 μM, the maximum soluble dose; cited from earlier work
# SARS-CoV-2 PLpro [1] = molecular target: T1, SARS-CoV-2 PLpro (Severe acute respiratory syndrome coronavirus 2, UniProt P0DTD1); type: biochemical; settings: for PLpro inhibition potency in words: compared with GRL0617 / parent
# SARS-CoV-2 PLpro [2] = molecular target: T1, SARS-CoV-2 PLpro; experiment: biochemical; type: binding
# in vivo = settings: male, C57BL/6, mouse, ip, 50 mg/kg
# A549 cells = settings: for cytotoxicity compared with 1: at 100 μM; for concentration below which cytotoxicity was not observed: under the antiviral assay conditions, A549-hACE2
# SARS-CoV-2 USA/WA1/2020 = type: cell-based; settings: 20 μM, remdesivir 10 μM / 20 μM
# [3] = microsomes, 2 μM
structure (smiles),measurement,setting,value
COc1cc(CNC(=O)C2CCN(C(C)c3cccc4ccccc34)CC2)ccn1 (racemic) [rac5c],antiviral activity compared to remdesivir,SARS-CoV-2,60%
Cc1ccc(N)cc1C(=O)N[C@H](CCO)c1cccc2ccccc12 [DY2-97],PLpro inhibition potency in words,SARS-CoV-2 PLpro [1],almost completely inactive
CNC(=O)C[C@@H](NC(=O)c1cc(N(C)C2CNC2)ccc1C)c1cccc2ccccc12 [DY2-116],PLpro inhibition potency in words,SARS-CoV-2 PLpro [1],almost completely inactive
same,IC50,"SARS-CoV-2 PLpro [1]; read-out: Enzyme inhibition IC50, SARS-CoV-2 PLpro, Z-RLRGG-AMC substrate",> 100 µM
same,Kd,SARS-CoV-2 PLpro [2],> 1000 µM
Cc1ccc(NC2CNC2)cc1C(=O)N[C@H](C)c1cccc(-c2ccc(CNC3CCCC3)s2)c1 [XR8-23],Cmax,in vivo,12 to 13 µM
same,cytotoxicity compared with 1,A549 cells,more cytotoxic than 1
same,concentration below which cytotoxicity was not observed,A549 cells,< 10 µM
Cc1ccc(NC2CNC2)cc1C(=O)N[C@H](C)c1cccc(-c2ccc(CN3CCCC3)s2)c1 [XR8-24],effect of treatment on viral RNA versus remdesivir,SARS-CoV-2 USA/WA1/2020,not significantly different from that of remdesivir; also recorded: not significantly different from the FDA-approved RdRp inhibitor remdesivir
same,Cmax,in vivo,12 to 13 µM
same,cytotoxicity compared with 1,A549 cells,more cytotoxic than 1
same,concentration below which cytotoxicity was not observed,A549 cells,< 50 µM
Cc1ccc(NC2CNC2)cc1C(=O)N[C@H](C)c1cccc2ccccc12 [ZN-2-184],improvement in affinity relative to GRL0617,SARS-CoV-2 PLpro [2]; SPR,two-fold improvement in affinity
same,gain in binding stabilization from SPR affinity,"SARS-CoV-2 PLpro [2]; relative to GRL0617, engaging Site I or BL2 groove alone",2.38 kJ/mol
CC[C@@H](NC(=O)c1cc(N(C)C2CNC2)ccc1C)c1cccc2ccccc12 [ZN-3-61],PLpro inhibition potency in words,SARS-CoV-2 PLpro [1],significant decrease in potency
Cc1ccc(NC2CNC2)cc1C(=O)N[C@H](C)c1cccc(-c2cccs2)c1 [ZN-3-80],human liver microsome stability in words,[3],more stable than GRL0617
